The conditions of the series: all storage conditions of the table; consistency in the IR pattern. The source says:
The term “stable” is used to describe an intimate mixture of desloratadine Form I and Form II that maintains the initial weight ratio of forms during formulation into a pharmaceutical dosage form and thereafter during a commercially useful period of normal storage and use, such as about one year, about 18 months, about two years, or any other desired period. […] Stability testing procedures are well known in the pharmaceutical industry.

Molecules are shown by their SMILES.

As for `Clc1ccc2c(c1)CCc1cccnc1C2=C1CCNCC1` [8-chloro-6,11-dihydro-11-(4-piperidylidene)-5H-benzo[5,6]cyclohepta[1,2-b]pyridine], the “interconversion of forms during the storage period” value is listed as “no interconversion of forms”.
